Assay results published in patent US11058652B2, “Methods for treatment of Prader-Willi syndrome” (Yissum Research Development Company of the Hebrew …, priority 2016, dated 2021).

System: Magel2-null mice
Assay: Effect of HU-671 on preventing bone loss in female Magel2 mice (μCT of distal femoral metaphysis)
Assay type: in vivo
Settings: 0.5 mg/kg IP daily for 6 weeks
Protocol: The effect of HU-671 on preventing bone loss in female Magel2 mice and their littermates as controls was tested. Forty (40) 6-week old female mice were treated daily with HU-671 (0.5 mg/kg, IP) for a period of 6 weeks. Twenty-four (24) hours following the last administration of HU-671, a complete structural analysis of the trabecular and cortical bone in the distal femoral metaphysis was performed. The femora were fixed in phosphate buffered formalin for 48 hours and further kept at 70% ethanol. They were examined by a micro computed tomography (μCT) system. Scans were performed at 20-μm resolution in all three spatial dimensions. The mineralized tissues were differentially segmented by a global thresholding procedure.

CCCCCCCC/C=C\CCCCCCCC(=O)NC(C)(CO)C(=O)O (racemic) [HU-671, N-oleoyl α-methyl-DL-serine]
Tb.N (trabecular number): increasing
Tb.Th (trabecular thickness): enhancing
bone volume density (BV/TV): stimulated increase
connectivity density in the trabecular bone (Conn.D): significantly rescued
cortical parameters: improved
reduction in Cort.Th (cortical thickness): completely prevent
trabecular bone loss (vs vehicle-treated): completely prevented
